Data from PubChem BioAssay AID1963978 (Molecular Pharmacology Branch, DTP, NCI, 2024).

Tested on: 616215-338-R-J1-PDC spheroids with HUVEC/MSC, viability
Assay: Anticancer human tumor 616215-338-R-J1-PDC patient-derived colon adenocarcinoma cell line growth inhibition [PI3K]
Conditions: for viability, T/C: stronger effect = lower value
Source text: Combinatorial screen of targeted agents with the PI3K inhibitors inavolisib, alpelisib, duvelisib, and copanlisib in multi-cell type tumor spheroids
A high-throughput screen of multi-cell type tumor spheroids was designed to identify active combinations of targeted small molecules and PI3K pathway inhibitors. Complex spheroids include a stromal component modeled by human endothelial cells (HUVEC) and fibroblasts modeled by human mesenchymal stem cells (MSCs). The concentration ranges selected for each drug and investigational agent were based upon clinically achievable concentrations if the clinical Cmax of the agent was known.
Compounds. The drugs and investigational agents: inavolisib (NSC800729), alpelisib (NSC765974), duvelisib (NSC772469), copanlisib (NSC816437), ipatasertib (NSC767898), afuresertib (NSC778305), talazoparib (NSC767125), sapanisertib (NSC764658), selumetinib (NSC741078), tovorafenib (DAY101, NSC766906), vemurafenib (NSC761431), ravoxertinib (NSC781343), sotorasib (NSC818433), MRTX1133 (NSC 836407), abemaciclib (NSC 768073), palbociclib (NSC758247), venetoclax (NSC 766270), SY5609 (NSC837396), enzalutamide (NSC755605), and darolutamide (NSC825331), were obtained from the National Cancer Institute (NCI) Developmental Therapeutics Program Chemical Repository. The FDA-approved anticancer drug set is available from the NCI Developmental Therapeutics Program. […] The stock solutions were prepared in dimethyl sulfoxide (DMSO, Sigma-Aldrich, St. Louis, MO, cat. D2650) at 800-fold the tested concentration and stored at -70 degrees C prior to their use. All drugs and investigational agents were tested over a range starting from a high concentration at or near the clinical Cmax and decreasing in half-log increments. If the clinical Cmax for an agent had not been determined, the highest concentration tested was 10 microM.
Cell Culture. All cells were maintained in an incubator at 37 degrees C and 5% CO2 with 95% humidity. The PDC lines were cultured according to standard operating procedures established by the NCI PDMR (https://pdmr.cancer.gov/sops/default.htm). All PDCs were thawed and cultured in Matrigel-coated flasks prepared with a working solution of 1X Ham's F-12 nutrient mix, without supplementation (Invitrogen, Waltham, MA, cat. 11765054), 100 U/mL penicillin-streptomycin (Invitrogen, cat. 15140122), and 2.5% Matrigel (Corning Inc., Corning, NY, cat. 354248) for the first three passages. The 354836-022-R-J1-PDC, 475296-252-R-J1-PDC, and 997726-040-R-J2-PDC lines were cultured in 6A media, which includes advanced DMEM/F-12 (Thermo Fisher Scientific, cat. 12634028), 10 mM HEPES (Thermo Fisher Scientific, cat. 15630080), 1X GlutaMAX supplement (Thermo Fisher Scientific, cat. 35050061), 0.1 mg/mL primocin (InvivoGen, San Diego, CA, cat. ant-pm-2), 10% defined fetal bovine serum, heat inactivated (HyClone Laboratories Inc., Logan, UT, cat. SH30070.03HI), 50% L-WRN conditioned media (ATCC, cat. CRL-3276), 1.25 mM N-Acetyl-L-cysteine (Sigma-Aldrich, cat. A9165), 10 mM nicotinamide (Sigma-Aldrich, cat. N0636), 1X B-27 supplement (Thermo Fisher Scientific, cat. 17504044), 1X N-2 supplement (Thermo Fisher Scientific, cat. 17502048), and 10 microM Y-27632 dihydrochloride (Tocris Bioscience, Bristol, United Kingdom, cat. 1254). The 624824-186-R-J2-PDC line was cultured in 6C/Colon 1B media, which includes all 6A media components plus 50 ng/mL human EGF recombinant protein (Thermo Fisher Scientific, cat. PHG0311). […]

[1] = curve of first compound, second compound 0.00316 µM
[2] = curve of first compound, second compound 0.01 µM
[3] = curve of first compound, second compound 0.0316 µM
[4] = curve of first compound, second compound 0.1 µM
[5] = curve of first compound, second compound 0.316 µM
[6] = curve of first compound, second compound 1 µM
[7] = second compound 0.00316 µM, first compound 0.0316 µM
[8] = second compound 0.00316 µM, first compound 0.1 µM
[9] = second compound 0.01 µM, first compound 0.0316 µM
[10] = second compound 0.01 µM, first compound 0.1 µM
[11] = second compound 0.0316 µM, first compound 0.0316 µM
[12] = second compound 0.0316 µM, first compound 0.1 µM
[13] = second compound 0.1 µM, first compound 0.0316 µM
[14] = second compound 0.1 µM, first compound 0.1 µM
[15] = second compound 0.316 µM, first compound 0.0316 µM
[16] = second compound 0.316 µM, first compound 0.1 µM
[17] = second compound 1 µM, first compound 0.0316 µM
[18] = second compound 1 µM, first compound 0.1 µM
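Note: spheroids exposed to agents for seven days before the viability read.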

Cn1ncnc1[C@H]1c2n[nH]c(=O)c3cc(F)cc(c23)N[C@@H]1c1ccc(F)cc1 + CC(Nc1ccc2c(c1)OCCn1cc(N3C(=O)OCC3C(F)F)nc1-2)C(N)=O
IC50 [1]: > 100 nM | IC50 [2]: > 100 nM | IC50 [3]: > 100 nM | IC50 [4]: > 100 nM | IC50 [5]: > 100 nM | IC50 [6]: > 100 nM | viability, T/C (second compound 0.00316 µM, first compound 0.000316 µM): 100% | viability, T/C (second compound 0.00316 µM, first compound 0.001 µM): 90.8% | viability, T/C (second compound 0.00316 µM, first compound 0.00316 µM): 98.3% | viability, T/C (second compound 0.00316 µM, first compound 0.01 µM): 103% | viability, T/C [7]: 88.8% | viability, T/C [8]: 98.4% | viability, T/C (second compound 0.01 µM, first compound 0.000316 µM): 85.9% | viability, T/C (second compound 0.01 µM, first compound 0.001 µM): 90.6% | viability, T/C (second compound 0.01 µM, first compound 0.00316 µM): 91.8% | viability, T/C (second compound 0.01 µM, first compound 0.01 µM): 84% | viability, T/C [9]: 101% | viability, T/C [10]: 90.5% | viability, T/C (second compound 0.0316 µM, first compound 0.000316 µM): 102% | viability, T/C (second compound 0.0316 µM, first compound 0.001 µM): 92.7% | viability, T/C (second compound 0.0316 µM, first compound 0.00316 µM): 89.8% | viability, T/C (second compound 0.0316 µM, first compound 0.01 µM): 97.6% | viability, T/C [11]: 98.5% | viability, T/C [12]: 93.2% | viability, T/C (second compound 0.1 µM, first compound 0.000316 µM): 97.1% | viability, T/C (second compound 0.1 µM, first compound 0.001 µM): 92.4% | viability, T/C (second compound 0.1 µM, first compound 0.00316 µM): 104% | viability, T/C (second compound 0.1 µM, first compound 0.01 µM): 103% | viability, T/C [13]: 94.8% | viability, T/C [14]: 88.9% | viability, T/C (second compound 0.316 µM, first compound 0.000316 µM): 112% | viability, T/C (second compound 0.316 µM, first compound 0.001 µM): 90.6% | viability, T/C (second compound 0.316 µM, first compound 0.00316 µM): 93.5% | viability, T/C (second compound 0.316 µM, first compound 0.01 µM): 99.4% | viability, T/C [15]: 90% | viability, T/C [16]: 88.7% | viability, T/C (second compound 1 µM, first compound 0.000316 µM): 96.2% | viability, T/C (second compound 1 µM, first compound 0.001 µM): 99.3% | viability, T/C (second compound 1 µM, first compound 0.00316 µM): 116% | viability, T/C (second compound 1 µM, first compound 0.01 µM): 89.6% | viability, T/C [17]: 87.7% | viability, T/C [18]: 76.2%

C[C@@H](NC(=O)c1ncnc(N)c1Cl)c1ncc(C(=O)Nc2cc(C(F)(F)F)c(Cl)cn2)s1 + COc1c(OCCCN2CCOCC2)ccc2c3n(c(=NC(=O)c4cnc(N)nc4)nc12)CCN3
IC50 [1]: > 10000 nM | IC50 [2]: > 10000 nM | IC50 [3]: > 10000 nM | IC50 [4]: 6860 nM | IC50 [5]: 72 nM | IC50 [6]: < 31.6 nM | viability, T/C [7]: 94.6% | viability, T/C [8]: 117% | viability, T/C (second compound 0.00316 µM, first compound 0.316 µM): 117% | viability, T/C (second compound 0.00316 µM, first compound 1 µM): 109% | viability, T/C (second compound 0.00316 µM, first compound 3.16 µM): 104% | viability, T/C (second compound 0.00316 µM, first compound 10 µM): 80.2% | viability, T/C [9]: 96.3% | viability, T/C [10]: 102% | viability, T/C (second compound 0.01 µM, first compound 0.316 µM): 116% | viability, T/C (second compound 0.01 µM, first compound 1 µM): 115% | viability, T/C (second compound 0.01 µM, first compound 3.16 µM): 112% | viability, T/C (second compound 0.01 µM, first compound 10 µM): 89.3% | viability, T/C [11]: 97.9% | viability, T/C [12]: 106% | viability, T/C (second compound 0.0316 µM, first compound 0.316 µM): 106% | viability, T/C (second compound 0.0316 µM, first compound 1 µM): 113% | viability, T/C (second compound 0.0316 µM, first compound 3.16 µM): 91.2% | viability, T/C (second compound 0.0316 µM, first compound 10 µM): 53.3% | viability, T/C [13]: 114% | viability, T/C [14]: 103% | viability, T/C (second compound 0.1 µM, first compound 0.316 µM): 97.6% | viability, T/C (second compound 0.1 µM, first compound 1 µM): 97.2% | viability, T/C (second compound 0.1 µM, first compound 3.16 µM): 74.7% | viability, T/C (second compound 0.1 µM, first compound 10 µM): 37.7% | viability, T/C [15]: 54% | viability, T/C [16]: 48.4% | viability, T/C (second compound 0.316 µM, first compound 0.316 µM): 40.2% | viability, T/C (second compound 0.316 µM, first compound 1 µM): 32.2% | viability, T/C (second compound 0.316 µM, first compound 3.16 µM): 28.4% | viability, T/C (second compound 0.316 µM, first compound 10 µM): 8.73% | viability, T/C [17]: 24.4% | viability, T/C [18]: 19.7% | viability, T/C (second compound 1 µM, first compound 0.316 µM): 16.2% | viability, T/C (second compound 1 µM, first compound 1 µM): 11.3% | viability, T/C (second compound 1 µM, first compound 3.16 µM): 6.09% | viability, T/C (second compound 1 µM, first compound 10 µM): 1.64%

Cn1ncc(Cl)c1-c1cc(C(=O)NC(CN)Cc2cccc(F)c2)sc1Cl (stereo not given)
viability, T/C (compound 0.0316 µM): 94% [middle of 4 runs] | viability, T/C (compound 0.1 µM): 97.8% [middle of 4 runs] | viability, T/C (compound 0.316 µM): 96.6% [middle of 4 runs] | viability, T/C (compound 1 µM): 97.7% [middle of 4 runs] | viability, T/C (compound 10 µM): 35.6% [middle of 4 runs] | IC50 (curve of compound): 6.53 µM [middle of 4 runs]
